How the values were obtained:
[1] = system: dispersion of melanin initiated by norepinephrine, serotonin, vasotocin, PACAP-27; assay: Selectivity: melanin dispersion initiated by other ligands in melanophores; assay type: cell-based, Xenopus laevis; details: 30 nM
Protocol: The selectivity of the MC receptor antagonism by dynorphin A(6-12) analogs was examined.
Melanophore responses were determined by measuring absorbance (OD) ratios taken through a monolayer of cells using a FisherBiotec BT2000 Microplate Reader (Pittsburgh, Pa.). Absorbance was measured before and after a 90 minute exposure to test peptides and then expressed as percent of initial absorbance. (Measurements were taken after 60 minutes pretreatment with 10 nM melatonin to initiate readings from an aggregated state.)

[2] = molecular target: T1, ACTH (MCR-2) receptor endogenous to murine Y1 adrenocortical cells (Mus musculus, UniProt Q64326); assay: cAMP concentration-response to ACTH-(1-24) in Y1 cells; assay type: cell-based; details: Y1 cells; 30 μM
T1 construct: the ACTH (MCR-2) receptor endogenous to murine Y1 adrenocortical cells; endogenous in cells; host or cells: murine Y1 adrenocortical cells
Protocol: (§1) Peptide concentration-response measurements are made in HEK-293 cells by quantifying cAMP levels using a [8-^3H]-CAMP kit from Amersham. Briefly, cells transfected with MC receptors, plated to confluency in 96-well tissue culture plates, are rinsed for 1 hr with 70% (vol/vol) L-15 medium containing 0.5% bovine serum albumin. […] Cellular debris was separated from extracted samples by centrifugation, 400 μL aliquots of the supernatant lyophilized, and total cAMP content quantified by isotope counting.
Concentration response measurements were made also as described in Example 2, but in Xenopus fibroblasts, COS-7, HEK-293, and Y1 cells.

MCR-1 = MCR-1 (Homo sapiens, UniProt Q01726); assay: cAMP concentration-response to α-MSH in HEK-293 cells transfected with human MCR-1; assay type: cell-based; design: expressed in transfected cells; details: presence and absence of 30 μM antagonist
Text: (§2) A second method for studying MCR antagonists is to use mammalian cells stably transfected with the cDNA for various human MCR. These transfected cells manifest an increased CAMP response to α-MSH stimulation and agents which antagonize MCR will block this stimulating effect of α-MSH. The inhibitory effects of antagonists can be quantified by the change in the effective concentration (EC50) of α-MSH i the presence of antagonist, or by computation of Ki value by a Schild regression analysis.
Human embryonic kidney (HEK-293) cells were maintained in modified Eagle's medium (DMEM/H-16/F-12) with 10% fetal calf serum (FBS), 100 U/mL penicillin “G” and 100 μg/mL streptomycin (P/S; Gemini). Transfections were performed using cDNA containing the human MCR-1 receptor (pcDNAI/NEO.hMC1), or MCR-4 (pcCMV.hMC4) receptors. HEK-293 cells are stably transformed with the human MCR-1 and MCR-4 receptors by electroporating 20 μg of plasmid cDNA using a Gene Pulser transfection apparatus (450 V, 960 μF; BioRad, Hercules, Calif.). […]
Peptide concentration-response measurements are made in HEK-293 cells by quantifying cAMP levels using a [8-^3H]-CAMP kit from Amersham. […] Cellular debris was separated from extracted samples by centrifugation, 400 μL aliquots of the supernatant lyophilized, and total cAMP content quantified by isotope counting. […]

MCR-4 = MCR-4 (Homo sapiens, UniProt P32245); assay: cAMP concentration-response to α-MSH in HEK-293 cells transfected with human MCR-4; assay type: cell-based; design: expressed in transfected cells; details: presence and absence of 30 μM antagonist
Protocol: A second method for studying MCR antagonists is to use mammalian cells stably transfected with the cDNA for various human MCR.
Human embryonic kidney (HEK-293) cells were maintained in modified Eagle's medium (DMEM/H-16/F-12) with 10% fetal calf serum (FBS), 100 U/mL penicillin “G” and 100 μg/mL streptomycin (P/S; Gemini). Transfections were performed using cDNA containing the human MCR-1 receptor (pcDNAI/NEO.hMC1), or MCR-4 (pcCMV.hMC4) receptors. HEK-293 cells are stably transformed with the human MCR-1 and MCR-4 receptors by electroporating 20 μg of plasmid cDNA using a Gene Pulser transfection apparatus (450 V, 960 μF; BioRad, Hercules, Calif.). After six days, stable MC clonal cell lines were selected by addition of 400 μg/ml G-418 to the medium and kept frozen for future use.
as §1
(§3) HEK-293 cells were maintained and transfected As described in Example 2. […]

MCR-3 = MCR-3 (Homo sapiens, UniProt P41968); assay: cAMP concentration-response to α-MSH in HEK-293 cells transfected with human MCR-3; assay type: cell-based; design: expressed in transfected cells; details: presence and absence of 30 μM antagonist
Text: as §2
Peptide concentration-response measurements are made in HEK-293 cells by quantifying cAMP levels using a [8-^3H]-CAMP kit from Amersham. Briefly, cells transfected with MC receptors, plated to confluency in 96-well tissue culture plates, are rinsed for 1 hr with 70% (vol/vol) L-15 medium containing 0.5% bovine serum albumin. After a 30 min exposure to test ligands, HEK-293 cells are rinsed twice with ice-cold 70% phosphate-buffered saline (0.07 g/L CaCl2, 0.07 g/L MgCl2.6H2O, 0.14 g/L KH2PO4, 1.51 g/L Na2HPO4.7H2O, 0.14 g/L KCl, 5.6 g/L NaCl, pH 7.4), and intracellular CAMP extracted with 1 mL of 60% (vol/vol) ethanol. Cellular debris was separated from extracted samples by centrifugation, 400 μL aliquots of the supernatant lyophilized, and total cAMP content quantified by isotope counting.
as §3

Chain of MCR-1 (Q01726 whole entry): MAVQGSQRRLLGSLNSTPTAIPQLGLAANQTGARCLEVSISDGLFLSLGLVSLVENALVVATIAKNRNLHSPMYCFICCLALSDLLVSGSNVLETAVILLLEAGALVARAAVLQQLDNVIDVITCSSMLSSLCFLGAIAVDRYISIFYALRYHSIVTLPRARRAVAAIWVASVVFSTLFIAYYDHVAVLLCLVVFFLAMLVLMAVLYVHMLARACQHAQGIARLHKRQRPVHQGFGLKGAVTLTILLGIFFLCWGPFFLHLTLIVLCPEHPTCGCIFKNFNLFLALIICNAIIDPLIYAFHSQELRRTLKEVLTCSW
T1 sequence (Q64326 whole entry): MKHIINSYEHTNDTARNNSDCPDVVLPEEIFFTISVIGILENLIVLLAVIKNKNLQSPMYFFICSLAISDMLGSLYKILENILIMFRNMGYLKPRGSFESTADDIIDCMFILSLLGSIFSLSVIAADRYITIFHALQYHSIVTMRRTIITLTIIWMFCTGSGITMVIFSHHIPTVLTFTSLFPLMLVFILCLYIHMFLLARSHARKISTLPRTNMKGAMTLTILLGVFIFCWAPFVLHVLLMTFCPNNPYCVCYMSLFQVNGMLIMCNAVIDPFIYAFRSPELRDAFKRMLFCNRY
T1 sequence (Q9D159 whole entry partner): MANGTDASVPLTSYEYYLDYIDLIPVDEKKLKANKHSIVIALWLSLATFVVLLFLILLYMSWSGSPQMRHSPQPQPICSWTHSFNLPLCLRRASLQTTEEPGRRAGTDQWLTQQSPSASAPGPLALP
Chain of MCR-4 (P32245 whole entry): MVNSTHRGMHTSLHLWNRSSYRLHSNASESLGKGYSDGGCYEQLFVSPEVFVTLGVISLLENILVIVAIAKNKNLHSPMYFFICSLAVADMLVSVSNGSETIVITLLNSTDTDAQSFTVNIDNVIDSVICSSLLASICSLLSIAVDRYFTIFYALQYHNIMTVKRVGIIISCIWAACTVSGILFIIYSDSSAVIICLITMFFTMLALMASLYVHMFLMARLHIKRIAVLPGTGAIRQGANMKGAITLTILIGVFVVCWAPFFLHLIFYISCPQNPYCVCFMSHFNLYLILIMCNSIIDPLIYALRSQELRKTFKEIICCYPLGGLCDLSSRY
Chain of MCR-3 (P41968 whole entry): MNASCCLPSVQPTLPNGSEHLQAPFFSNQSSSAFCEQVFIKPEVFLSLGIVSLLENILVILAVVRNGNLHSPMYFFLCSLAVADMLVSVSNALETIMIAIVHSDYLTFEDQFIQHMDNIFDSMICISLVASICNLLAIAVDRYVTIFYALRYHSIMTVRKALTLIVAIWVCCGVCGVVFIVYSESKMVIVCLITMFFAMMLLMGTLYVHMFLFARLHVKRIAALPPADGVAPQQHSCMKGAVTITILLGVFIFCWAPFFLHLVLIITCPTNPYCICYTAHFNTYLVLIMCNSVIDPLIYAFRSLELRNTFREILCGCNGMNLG

SMILES	effect on concentration-response curves evoked with norepinephrine, serotonin, PACAP-27, and Arg8-vasotocin [1]	shift of the concentration-response curve of ACTH-(1-24) to the right [2]	Dose ratio from α-MSH dose-response curves (MCR-1)	Dose ratio from α-MSH dose-response curves (MCR-4)	Dose ratio from α-MSH dose-response curves (MCR-3)
CSCC[C@@H]1NC(=O)[C@H](C)NC(=O)[C@H]([C@@H](C)O)NC(=O)CNC(=O)[C@H](CC(C)C)NC(=O)[C@H](CCCCN)NC(=O)[C@H](CCCNC(=N)N)NC(=O)[C@@H]2CSSC[C@@H]3NC(=O)[C@@H]4CCCN4C(=O)[C@H](C(C)C)NC(=O)[C@H](CCC(N)=O)NC(=O)[C@H](CCC(N)=O)NC(=O)CNC(=O)[C@H](CC(C)C)NC(=O)[C@@H]4CSSC[C@H](NC(=O)[C@H]([C@@H](C)O)NC(=O)[C@H](C)NC(=O)[C@H](CSSC[C@@H](C(=O)N[C@@H](CO)C(=O)N[C@@H](CCCNC(=N)N)C(=O)N[C@H](C(N)=O)[C@@H](C)O)NC(=O)[C@@H]5CCCN5C(=O)[C@H](CC(N)=O)NC1=O)NC(=O)[C@@H]1CCCN1C(=O)[C@H](CC(=O)O)NC(=O)[C@H](CSSC[C@H](NC(=O)[C@H](CCCNC(=N)N)NC(=O)[C@H](CCCNC(=N)N)NC(=O)[C@H](CO)NC(=O)[C@@H](N)CO)C(=O)N[C@@H](C(C)C)C(=O)N[C@@H](CCCNC(=N)N)C(=O)N[C@@H](CC(C)C)C(=O)N[C@@H](Cc1c[nH]cn1)C(=O)N[C@@H](CCC(=O)O)C(=O)N[C@@H](CO)C(=O)N4)NC3=O)C(=O)N[C@@H](Cc1ccc(O)cc1)C(=O)N[C@H]1CSSC[C@H](NC(=O)[C@H](Cc3ccccc3)NC(=O)[C@H](C)NC(=O)[C@H](CC(N)=O)NC(=O)[C@H](Cc3ccccc3)NC(=O)[C@H](Cc3ccccc3)NC(=O)[C@H](CCCNC(=N)N)NC1=O)C(=O)N[C@@H](Cc1ccc(O)cc1)C(=O)N2 [ARP-(83-132)-NH2, SSRRCVRL HESCLGQQVPCCDPCATCYCRFFNAFCYCRKLGTAMNPCSRT]	no effect				
CC[C@H](C)[C@H](NC(=O)[C@H](CCCNC(=N)N)NC(=O)[C@H](CCCNC(=N)N)NC(=O)[C@H](CC(C)C)NC(=O)[C@H](Cc1ccccc1)NC(=O)CNC(=O)CN)C(=O)N[C@@H](CCCNC(=N)N)C(=O)N1CCC[C@H]1C(=O)N[C@@H](CCCCN)C(=O)N[C@@H](CC(C)C)C(=O)N[C@@H](CCCCN)C(=O)O [dynorphin A(2-13)]		approximately 15 fold	250±31	147±13	128±44
